The record followed here is patent US20230301981A1, “TLR7/8 ANTAGONISTS AND USES THEREOF” (Merck Patent GmbH, priority 2020, published 2023).

The test has as its target T1, TLR⅞ (Mus musculus, UniProt P58681).
T1 sequence (P58681 27-1050): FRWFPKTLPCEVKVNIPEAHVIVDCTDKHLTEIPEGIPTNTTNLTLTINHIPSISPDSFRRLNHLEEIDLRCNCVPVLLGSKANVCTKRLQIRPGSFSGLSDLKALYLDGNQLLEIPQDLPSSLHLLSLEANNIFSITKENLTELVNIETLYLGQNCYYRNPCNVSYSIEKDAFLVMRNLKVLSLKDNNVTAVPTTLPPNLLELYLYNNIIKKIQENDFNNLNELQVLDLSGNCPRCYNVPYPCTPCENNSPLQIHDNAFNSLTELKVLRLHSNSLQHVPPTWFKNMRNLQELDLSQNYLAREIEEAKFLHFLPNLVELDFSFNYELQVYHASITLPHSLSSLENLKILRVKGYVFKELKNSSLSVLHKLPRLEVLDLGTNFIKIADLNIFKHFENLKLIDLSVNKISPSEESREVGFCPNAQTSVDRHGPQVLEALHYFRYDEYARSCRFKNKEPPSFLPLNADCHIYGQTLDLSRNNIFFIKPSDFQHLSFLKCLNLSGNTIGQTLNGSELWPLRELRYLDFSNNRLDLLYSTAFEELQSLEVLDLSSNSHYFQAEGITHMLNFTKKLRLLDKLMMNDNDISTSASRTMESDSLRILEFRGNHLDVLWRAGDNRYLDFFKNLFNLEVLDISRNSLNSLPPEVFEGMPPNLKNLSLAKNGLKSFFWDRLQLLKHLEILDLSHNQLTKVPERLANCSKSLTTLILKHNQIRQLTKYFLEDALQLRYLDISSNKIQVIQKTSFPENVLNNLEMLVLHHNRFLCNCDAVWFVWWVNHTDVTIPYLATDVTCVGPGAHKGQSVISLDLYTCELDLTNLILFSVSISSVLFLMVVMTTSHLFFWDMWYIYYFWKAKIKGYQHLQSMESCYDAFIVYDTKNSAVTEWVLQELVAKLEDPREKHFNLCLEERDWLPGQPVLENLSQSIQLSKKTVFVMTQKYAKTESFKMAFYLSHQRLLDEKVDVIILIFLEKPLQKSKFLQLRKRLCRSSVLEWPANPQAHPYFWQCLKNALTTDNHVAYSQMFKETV
The test is described as follows: Mouse spleenocytes cell assay with R848 stimulation (IL6/TNFa ELISA). The test is classed as cell-based. Conditions: R848 1 µM. The procedure:
Mouse spleen from healthy, female C57BL-6/N mice (n=2) were taken out in 50 mL tubes with B-Cell medium and the experiment started directly. The spleen was grinded through a cell strainer by using the punch of a syringe into a 50 mL Falcon tube. Cell strainer and punch were flushed with appropriate amount of washing buffer to avoid cellloss. Then the spleenocytes were centrifuged for 10 min at 552 xg (1600 rpm), 4° C. The erythrocytes within the cell pellet were lysed by resuspending pellet in 1 ml ACK-lysing buffer (4° C.) and incubate for 1 minute at RT. Lysis was stopped by filling up to 50 ml with washing buffer and centrifuged for 10 min at 552 xg (1600 rpm), 4° C. Cells were washed in B-cell Media (IMDM + 25 mM HEPES + 10%FCS + pen/strep + NEAA 10 nM + Sodium Pyrovat 100 nM, β-Mercaptoethanol 50 nM), counted and seeded in a density of 148500 cells per well in a 96 well MTP (135µl of 1,1×106c/ml). The cells were pre-treated with antimalarials (15 µL, in different concentrations according to dose-response curve ranging from 100 pM-50 µM)) for 30 min, at 37° C., 5% CO2, followed by TLR⅞ stimulation with R848 (15 µl, final concentration of 1 µM) or a TLR9 stimulation with CpG (15 µl, final concentration of 5 µM) and incubated at 37° C., 5% CO2 for 18 - 24 hours.
Supernatants were collected and transferred into a 96 well round bottom MTP and stored at -20° C. until ELISA formouse IL6 and mouse TNFa were performed. Plates were read directly after assay on an Envision Multiplate reader. Results were analyzed with GraphPadPrism V8.0. Plot the calculated amount of produced IL6 or TNFa in pg/ml on y-axis and the concentration of each MSC concentration at half logarhythmic scaling on the x-axis to achieve a dose-response curve. Determine IC50 values using Graph Pad Prism analysis software (Transform Y values using “X=Log(X) and log inhibitor vs. response; Variable slope (four parameters).
A general note: ELISA stands for enzyme-linked immunosorbent assay.

As to `CCN(CCO)CCCC(C)Nc1ccnc2cc(Cl)ccc12` (stereo not drawn) [HYDROXY-CHLOROQUINE HCQ, hydroxychloroquine], where the note is “IL6 readout”, the “IC50 TLR⅞ (IL6 readout) mouse spleenocytes (n=2)” value is “no suppr”. Further, the IC50 (IL6 readout, read-out: IC50 TLR⅞ (IL6 readout) mouse spleenocytes (n=2)) came to 27.1 µM. For the same molecule, the “IC50 TLR⅞ (TNF readout) mouse spleenocytes (n=2)” value (TNF readout) is on record as “no suppr”.

In general, IC50 refers to the concentration that gives 50% inhibition.
